pKd: −log10 of the molar value.
Molecular target: T1, Human serum albumin (HSA) (Homo sapiens, UniProt P02768)
T1 construct: gene ALB
Experiment: intrinsic fluorescence quenching (Stern-Volmer, Klotz Ka), dansyl amino acid marker displacement, far UV-CD
Format: binding
Conditions: read-out: λex 275 nm / Ka [mol^-1.L] ± SD ^1

T1 sequence (P02768 25-609): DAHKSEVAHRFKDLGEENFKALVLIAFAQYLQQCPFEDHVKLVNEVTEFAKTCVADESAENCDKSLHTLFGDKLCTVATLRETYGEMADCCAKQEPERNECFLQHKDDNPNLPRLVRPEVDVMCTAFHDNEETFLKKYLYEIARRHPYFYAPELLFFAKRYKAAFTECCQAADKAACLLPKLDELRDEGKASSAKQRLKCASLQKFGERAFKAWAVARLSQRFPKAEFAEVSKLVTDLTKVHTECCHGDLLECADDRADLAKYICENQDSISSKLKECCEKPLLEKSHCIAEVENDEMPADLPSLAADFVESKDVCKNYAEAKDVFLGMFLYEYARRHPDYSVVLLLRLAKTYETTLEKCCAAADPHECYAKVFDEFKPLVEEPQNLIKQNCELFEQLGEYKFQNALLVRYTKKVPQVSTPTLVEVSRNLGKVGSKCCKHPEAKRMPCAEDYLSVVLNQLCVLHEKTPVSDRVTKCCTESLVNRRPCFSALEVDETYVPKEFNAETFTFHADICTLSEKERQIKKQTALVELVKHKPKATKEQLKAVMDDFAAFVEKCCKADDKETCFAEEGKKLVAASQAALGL

c1cnc(N2c3ccncc3Sc3ncccc32)nc1 [10-Pyr-3,6-DAPT, 10-(2′-pyrimidyl)-3,6-diazaphenothiazine]
pKd: 4.72
